These results are taken from patent US20220220128A1, “HETEROCYCLIC COMPOUNDS AS KINASE INHIBITORS, COMPOSITIONS COMPRISING THE HETEROCYCLIC COMPOUND, AND METHODS OF USE THEREOF” (JS Innopharm (Shanghai) Ltd, priority 2019, published 2022).

Read-outs that look alike come from different tables or passages of the source. Where only a bound is given, the exact number is not on record here.

The target in one assay is T1, human RET kinase (Homo sapiens, UniProt P07949).
T1 construct: purchased Carna 08-159
The experiment in a line: RET Kinase Assay (LanthaScreen TR-FRET enzymatic assay). It counts as biochemical. The settings on record: 7 nM RET, 23 μM ATP. The method, then:
Compounds were tested in a LanthaScreen™ time-resolved fluorescence energy transfer (TR-FRET) enzymatic assay from Invitrogen. The assay used human RET kinase (Carna 08-159). Test compounds were prepared and diluted in DMSO in 3-fold serial dilutions to 50× of the final testing concentrations. The compounds were then further diluted to 5× by the kinase reaction buffer (50 mM HEPES pH 7.5, 0.0015% Brij-35). The enzymatic reaction for compound testing was performed in a white 384-well polypropylene plate (Corning 3573) with a total reaction volume of 25 μl containing 7 nM RET, 3 μM peptide substrate FAM-P2 (GL Biochem 112394), and 23 μM ATP (Sigma A7699-1G). The assay started with loading RET diluted in kinase reaction buffer to wells, followed by addition of equal volume of 5× compounds for 15-min incubation at the room temperature for pre-treatment. The enzymatic reaction was initiated by addition of mixture of the substrate and ATP prepared in kinase reaction buffer. After incubation at 28° C. for one hour, 25 μl of stopper buffer (a mixture of 100 mM HEPES pH 7.5 buffer, 0.015% Brij-35, 50 mM EDTA and 0.2% of coating reagent 3 (Cliper Lifesciences)) and produce TR-FRET signals. After 30 minutes of incubation at room temperature, the plate was read in a Caliper with the following settings: Excitation 340 nm (30)/Emission1 495 nm (10)/Emission2 520 nm (25). The TR-FRET values were dimensionless numbers that were calculated as the ratio of the acceptor ([…]) signal to the donor (Terbium) signal. Percent of control was calculated as the percentage of compound-treated vs 1% DMSO vehicle-treated. The dose-response curves were generated and the IC50s were calculated by nonlinear sigmoid curve fitting using XLFit.

The target in another assay is T2, human KDR kinase (Homo sapiens, UniProt P35968).
T2 construct: purchased Carna 08-191
The experiment in a line: KDR Kinase Assay (LanthaScreen TR-FRET enzymatic assay). The following applies: 1.2 nM KDR, 92 μM ATP. The format is biochemical. The method, then: Compounds were tested in a LanthaScreen™ time-resolved fluorescence energy transfer (TR-FRET) enzymatic assay from Invitrogen. The assay used human KDR kinase (Carna 08-191). Test compounds were prepared and diluted in DMSO in 3-fold serial dilutions to 50× of the final testing concentrations. The compounds were then further diluted to 5× by the kinase reaction buffer (50 mM HEPES pH 7.5, 0.0015% Brij-35). The enzymatic reaction for compound testing was performed in a white 384-well polypropylene plate (Corning 3573) with a total reaction volume of 25 μl containing 1.2 nM KDR, 3 μM peptide substrate FAM-P22 (GL Biochem 112393), and 92 μM ATP (Sigma A7699-1G). The assay started with loading RET diluted in kinase reaction buffer to wells, followed by addition of equal volume of 5× compounds for 15-min incubation at the room temperature for pre-treatment. The enzymatic reaction was initiated by addition of mixture of the substrate and ATP prepared in kinase reaction buffer. After incubation at 28° C. for one hour, 25 μl of stopper buffer (a mixture of 100 mM HEPES pH 7.5 buffer, 0.015% Brij-35, 50 mM EDTA and 0.2% of coating reagent 3 (Cliper Lifesciences)) and produce TR-FRET signals. After 30 minutes of incubation at room temperature, the plate was read in a Caliper with the following settings: Excitation 340 nm (30)/Emission1 495 nm (10)/Emission2 520 nm (25). The TR-FRET values were dimensionless numbers that were calculated as the ratio of the acceptor ([…]) signal to the donor (Terbium) signal. Percent of control was calculated as the percentage of compound-treated vs 1% DMSO vehicle-treated. The dose-response curves were generated and the IC50s were calculated by nonlinear sigmoid curve fitting using XLFit.

A further assay relates to TT cells. The experiment in a line: TT Cell Proliferation Assay (WST-8, 8 days). It counts as cell-based. The settings on record: Homo sapiens, 192 h, growth inhibition in TT cells, read-out: TT Cellular Activity. On the procedure: Compounds disclosed herein were tested for the inhibition of RET by a cancer cell proliferation assay commonly known as MTT assay. In this assay, a complete media was prepared by adding 10% fetal bovine serum to RPMI-1640 medium (Life technology). TT cells were added to each of 88 wells of a 96 well plate at a seeding density of 6,000 cells/well/90 μL. The cells were allowed to attach to the plate by incubating at 37° C. for 24 hours. The compound was dissolved in DMSO (SIGMA). A solution of test compound was prepared in complete media by serial dilution to obtain the following concentrations: 50 μM, 15 μM, 5 μM, 1.5 μM, 0.5 μM, 0.15 μM, 0.05 μM, 0.015 μM and 0.005 μM. The test compound solution (10 μL) was added to each of 80 cell-containing wells. The final concentrations of the compound were following: 5 μM, 1.5 μM, 0.5 μM, 0.15 μM, 0.05 μM, 0.015 μM, 0.005 μM, 0.0015 μM and 0.0005 μM. The final concentration of DMSO is 0.5%. To the 8 remaining cell-containing wells, only complete media (containing 0.5% DMSO) was added to form a control group in order to measure maximal proliferation. To the remaining 8 empty wells, complete media was added to for a vehicle control group in order to measure background. The plates were incubated at 37° C. for 8 days. 10 μL WST-8 solution (DOJINDO, Cell Counting KIT-8) was added to each well. The plates were further incubated at 37° C. for 5 hours, and then read for the absorbance using a microplate reader at 450 nm. The IC50 was calculated using GraphPad Prism.
(In general: Tetrazolium dyes change colour on reduction, which living cells bring about.)

T2 sequence (P35968 20-1356): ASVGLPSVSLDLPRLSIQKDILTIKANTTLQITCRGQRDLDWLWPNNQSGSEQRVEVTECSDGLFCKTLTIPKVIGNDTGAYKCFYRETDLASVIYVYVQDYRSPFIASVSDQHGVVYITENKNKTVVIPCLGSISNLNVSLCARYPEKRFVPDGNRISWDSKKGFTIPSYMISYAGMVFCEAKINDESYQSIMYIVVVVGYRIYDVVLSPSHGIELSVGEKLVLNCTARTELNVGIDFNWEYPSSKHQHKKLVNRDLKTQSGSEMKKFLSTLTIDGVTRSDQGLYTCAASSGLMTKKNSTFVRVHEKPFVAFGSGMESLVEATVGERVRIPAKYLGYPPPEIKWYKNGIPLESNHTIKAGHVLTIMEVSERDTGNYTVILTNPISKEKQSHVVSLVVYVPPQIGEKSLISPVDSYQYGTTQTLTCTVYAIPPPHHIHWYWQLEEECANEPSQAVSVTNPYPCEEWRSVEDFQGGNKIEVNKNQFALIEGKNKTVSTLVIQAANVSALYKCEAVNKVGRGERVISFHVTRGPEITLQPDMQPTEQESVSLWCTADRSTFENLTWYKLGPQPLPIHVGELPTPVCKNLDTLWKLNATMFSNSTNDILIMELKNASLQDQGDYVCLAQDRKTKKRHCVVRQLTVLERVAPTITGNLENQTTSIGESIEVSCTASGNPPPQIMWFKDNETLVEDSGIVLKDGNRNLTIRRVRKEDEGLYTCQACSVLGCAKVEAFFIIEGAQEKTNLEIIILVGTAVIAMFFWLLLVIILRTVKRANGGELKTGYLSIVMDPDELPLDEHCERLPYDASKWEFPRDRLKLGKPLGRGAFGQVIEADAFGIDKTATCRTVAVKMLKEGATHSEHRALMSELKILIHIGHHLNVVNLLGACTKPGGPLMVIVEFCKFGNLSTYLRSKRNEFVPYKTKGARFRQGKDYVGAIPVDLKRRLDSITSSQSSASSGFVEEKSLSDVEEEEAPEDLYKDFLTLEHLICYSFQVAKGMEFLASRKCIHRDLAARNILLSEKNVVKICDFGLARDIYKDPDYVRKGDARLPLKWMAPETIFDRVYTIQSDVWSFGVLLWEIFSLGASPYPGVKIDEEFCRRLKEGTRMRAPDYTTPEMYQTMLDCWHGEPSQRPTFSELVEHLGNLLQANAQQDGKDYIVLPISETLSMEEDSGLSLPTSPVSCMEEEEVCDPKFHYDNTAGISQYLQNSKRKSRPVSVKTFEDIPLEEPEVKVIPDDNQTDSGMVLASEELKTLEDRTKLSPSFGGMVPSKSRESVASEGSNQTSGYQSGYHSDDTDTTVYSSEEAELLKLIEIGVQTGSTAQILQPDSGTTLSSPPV
T1 sequence (P07949 29-1114): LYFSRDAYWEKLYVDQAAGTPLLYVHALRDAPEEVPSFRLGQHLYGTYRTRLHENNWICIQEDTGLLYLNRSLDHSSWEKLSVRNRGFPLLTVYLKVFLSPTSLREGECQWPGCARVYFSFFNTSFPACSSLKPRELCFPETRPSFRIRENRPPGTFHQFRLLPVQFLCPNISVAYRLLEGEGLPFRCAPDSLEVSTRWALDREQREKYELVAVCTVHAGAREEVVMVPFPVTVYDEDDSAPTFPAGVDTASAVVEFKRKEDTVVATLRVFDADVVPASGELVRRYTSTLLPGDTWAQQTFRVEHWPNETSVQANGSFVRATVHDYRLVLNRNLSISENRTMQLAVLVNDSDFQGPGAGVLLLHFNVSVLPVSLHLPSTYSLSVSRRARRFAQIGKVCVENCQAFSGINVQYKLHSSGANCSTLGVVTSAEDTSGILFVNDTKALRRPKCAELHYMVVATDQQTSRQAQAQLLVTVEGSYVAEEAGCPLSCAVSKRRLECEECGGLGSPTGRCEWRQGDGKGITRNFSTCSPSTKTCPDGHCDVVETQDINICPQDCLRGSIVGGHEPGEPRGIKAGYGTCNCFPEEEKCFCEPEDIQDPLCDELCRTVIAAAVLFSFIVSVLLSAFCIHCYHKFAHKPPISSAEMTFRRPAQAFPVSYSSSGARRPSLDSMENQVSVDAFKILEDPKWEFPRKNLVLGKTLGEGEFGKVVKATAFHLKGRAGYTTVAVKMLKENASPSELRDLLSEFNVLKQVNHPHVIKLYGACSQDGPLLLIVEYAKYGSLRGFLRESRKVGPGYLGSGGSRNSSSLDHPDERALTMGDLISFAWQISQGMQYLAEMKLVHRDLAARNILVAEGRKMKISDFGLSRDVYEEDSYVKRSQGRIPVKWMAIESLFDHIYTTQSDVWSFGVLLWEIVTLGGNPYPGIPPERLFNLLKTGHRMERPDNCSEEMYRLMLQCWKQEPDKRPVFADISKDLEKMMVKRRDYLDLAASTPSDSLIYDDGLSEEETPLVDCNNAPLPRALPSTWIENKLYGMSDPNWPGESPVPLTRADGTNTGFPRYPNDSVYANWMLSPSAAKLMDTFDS

Consider `CCOc1cc(-c2ccc(N3C[C@H]4CN(C(=O)c5ncccc5Cl)C[C@H]4C3)nc2)c2c(C#N)cnn2c1` [Example 6, 4-(6-((3aR,6aS)-5-(3-chloropicolinoyl)hexahydropyrrolo[3,4-c]pyrrol-2(1H)-yl)pyridin-3-yl)-6-ethoxypyrazolo[1,5-a]pyridine-3-carbonitrile], for which the IC50 was ≤ 10 nM at human RET kinase, > 100 nM against human KDR kinase and 10 to 50 nM in the assay on TT cells (TT).
The like results for `CC(O)COc1cc(-c2ccc(N3C[C@H]4CN(C(=O)c5ncccc5Cl)C[C@H]4C3)nc2)c2c(C#N)cnn2c1` (stereo partly drawn) [Example 8, 4-(6-((3aR,6aS)-5-(3-chloropicolinoyl)hexahydropyrrolo[3,4-c]pyrrol-2(1H)-yl)pyridin-3-yl)-6-(2-hydroxypropoxy)pyrazolo[1,5-a]pyridine-3-carbonitrile] were, in that order, ≤ 10 nM, > 100 nM and 10 to 50 nM.
For `CC(C)C(=O)N1C[C@@H]2CN(c3ccc(-c4cc(-c5cnn(C)c5)cn5ncc(C#N)c45)cn3)C[C@@H]2C1` [Example 10, 4-(6-((3aR,6aS)-5-isobutyrylhexahydropyrrolo[3,4-c]pyrrol-2(1H)-yl)pyridin-3-yl)-6-(1-methyl-1H-pyrazol-4-yl)pyrazolo[1,5-a]pyridine-3-carbonitrile], in that order: ≤ 10 nM, 10 to 50 nM and 10 to 50 nM.
For `COc1ccc(CN2C[C@@H]3CN(c4ccc(-c5cc(-c6ccn(C)n6)cn6ncc(C#N)c56)cn4)C[C@@H]3C2)cn1` [Example 13, 4-(6-((3aR,6aS)-5-((6-methoxypyridin-3-yl)methyl)hexahydropyrrolo[3,4-c]pyrrol-2(1H)-yl)pyridin-3-yl)-6-(1-methyl-1H-pyrazol-3-yl)pyrazolo[1,5-a]pyridine-3-carbonitrile], in that order: ≤ 10 nM, 10 to 50 nM and 10 to 50 nM.
As to `COc1ccc(CN2C[C@@H]3CN(c4ccc(-c5cc(OCC(C)(C)O)cn6ncc(C#N)c56)cn4)C[C@@H]3C2)cn1` [Example 14, 6-(2-hydroxy-2-methylpropoxy)-4-(6-((3aR,6aS)-5-((6-methoxypyridin-3-yl)methyl)hexahydropyrrolo[3,4-c]pyrrol-2(1H)-yl)pyridin-3-yl)pyrazolo[1,5-a]pyridine-3-carbonitrile], the results for the IC50 on human RET kinase, on human KDR kinase and in the assay with TT cells (TT) were ≤ 10 nM, > 100 nM and 10 to 50 nM, respectively.
For `COc1ccc(C(=O)N[C@H]2[C@@H]3CN(c4ccc(-c5cc(-c6cnn(C)c6)cn6ncc(C#N)c56)cc4)C[C@@H]32)cn1` [Example 15, N-((1R,5S,6s)-3-(4-(3-cyano-6-(1-methyl-1H-pyrazol-4-yl)pyrazolo[1,5-a]pyridin-4-yl)phenyl)-3-azabicyclo[3.1.0]hexan-6-yl)-6-methoxynicotinamide], in that order: 10 to 50 nM, 50 to 100 nM and 10 to 50 nM.
On to `CC(C)C(O)C(=O)N[C@H]1[C@@H]2CN(c3ccc(-c4cc(-c5cnn(C)c5)cn5ncc(C#N)c45)cc3)C[C@@H]21` (stereo partly drawn) [Example 16, N-((1R,5S,6s)-3-(4-(3-cyano-6-(1-methyl-1H-pyrazol-4-yl)pyrazolo[1,5-a]pyridin-4-yl)phenyl)-3-azabicyclo[3.1.0]hexan-6-yl)-2-hydroxy-3-methylbutanamide], for which the IC50 at human RET kinase is ≤ 10 nM; against human KDR kinase it was 10 to 50 nM; in the assay on TT cells (TT) it was 10 to 50 nM.
Consider `CC(C)C(O)C(=O)N[C@@H]1[C@@H]2CN(c3ccc(-c4cc(-c5cnn(C)c5)cn5ncc(C#N)c45)cc3)C[C@@H]21` (stereo partly drawn) [Example 17, N-((1R,5S,6r)-3-(4-(3-cyano-6-(1-methyl-1H-pyrazol-4-yl)pyrazolo[1,5-a]pyridin-4-yl)phenyl)-3-azabicyclo[3.1.0]hexan-6-yl)-2-hydroxy-3-methylbutanamide], for which the results for the IC50 against human RET kinase, against human KDR kinase and in the assay with TT cells (TT) were ≤ 10 nM, 10 to 50 nM and 10 to 50 nM, respectively.
In the case of `Cn1cc(-c2cc(-c3ccc(N4C[C@@H]5[C@H](C4)[C@H]5NC(=O)[C@H](O)c4ccccc4)nc3)c3c(C#N)cnn3c2)cn1` [Example 18, (R)-N-((1R,5S,6s)-3-(5-(3-cyano-6-(1-methyl-1H-pyrazol-4-yl)pyrazolo[1,5-a]pyridin-4-yl)pyridin-2-yl)-3-azabicyclo[3.1.0]hexan-6-yl)-2-hydroxy-2-phenylacetamide], the IC50 against human RET kinase was ≤ 10 nM; on human KDR kinase, 10 to 50 nM; in the assay with TT cells, 10 to 50 nM.
As to `CC(C)[C@@H](O)C(=O)N[C@H]1[C@@H]2CN(c3ccc(-c4cc(-c5cnn(C)c5)cn5ncc(C#N)c45)cn3)C[C@@H]21` [Example 19, (R)-N-((1R,5S,6s)-3-(5-(3-cyano-6-(1-methyl-1H-pyrazol-4-yl)pyrazolo[1,5-a]pyridin-4-yl)pyridin-2-yl)-3-azabicyclo[3.1.0]hexan-6-yl)-2-hydroxy-3-methylbutanamide], the figures for the IC50 against human RET kinase, on human KDR kinase and in the assay on TT cells (TT) were ≤ 10 nM, 10 to 50 nM and 10 to 50 nM, respectively.
Consider `Cn1cc(-c2cc(-c3ccc(N4C[C@@H]5[C@H](C4)[C@H]5NC(=O)c4ncccc4C(F)(F)F)nc3)c3c(C#N)cnn3c2)cn1` [Example 21, N-((1R,5S,6s)-3-(5-(3-cyano-6-(1-methyl-1H-pyrazol-4-yl)pyrazolo[1,5-a]pyridin-4-yl)pyridin-2-yl)-3-azabicyclo[3.1.0]hexan-6-yl)-3-(trifluoromethyl)picolinamide], for which the IC50 at human RET kinase is ≤ 10 nM; against human KDR kinase it was ≤ 10 nM; in the assay with TT cells (TT), 10 to 50 nM.
`Cn1cc(-c2cc(-c3ccc(N4C[C@@H]5[C@H](C4)[C@H]5NC(=O)c4ncc(F)cc4Cl)nc3)c3c(C#N)cnn3c2)cn1` [Example 22, 3-chloro-N-((1R,5S,6s)-3-(5-(3-cyano-6-(1-methyl-1H-pyrazol-4-yl)pyrazolo[1,5-a]pyridin-4-yl)pyridin-2-yl)-3-azabicyclo[3.1.0]hexan-6-yl)-5-fluoropicolinamide]: the IC50 against human RET kinase was ≤ 10 nM; against human KDR kinase, 10 to 50 nM; in the assay on TT cells (TT) it was 50 to 100 nM.
